Test results as given in the supplement of paper PMC10307832.

Key:
Assay in all cases: relative viability (nuclei count vs DMSO), 5 days (fraction); higher = more cells survive
Gemcitabine + Linsitinib = compound: Nc1ccn([C@@H]2O[C@H](CO)[C@@H](O)C2(F)F)c(=O)n1 [Gemcitabine] + C[C@]1(O)C[C@@H](c2nc(-c3ccc4ccc(-c5ccccc5)nc4c3)c3c(N)nccn32)C1 [Linsitinib] (partner 1 µM)
In short: (§1)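 Each reported value is a median over duplicate plates. It expresses relative viability: treated-well nuclei count divided by vehicle-well nuclei count. Lung cancer cell lines in 1536-well plates were dosed by pin tool a day after seeding, alone with one drug or with a fixed anchor-drug dose plus five library-drug doses (not always all listed) in √10 steps, and nuclei were counted after 5 days.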

Gemcitabine + Foretinib = compound: Nc1ccn([C@@H]2O[C@H](CO)[C@@H](O)C2(F)F)c(=O)n1 [Gemcitabine] + COc1cc2c(Oc3ccc(NC(=O)C4(C(=O)Nc5ccc(F)cc5)CC4)cc3F)ccnc2cc1OCCCN1CCOCC1 [Foretinib] (partner 0.25 µM)
In short: as §1

Gemcitabine + Luminespib = compound: Nc1ccn([C@@H]2O[C@H](CO)[C@@H](O)C2(F)F)c(=O)n1 [Gemcitabine] + CCNC(=O)c1noc(-c2cc(C(C)C)c(O)cc2O)c1-c1ccc(CN2CCOCC2)cc1 [Luminespib] (partner 0.01 µM)
In short: as §1

Gemcitabine + Navitoclax = compound: Nc1ccn([C@@H]2O[C@H](CO)[C@@H](O)C2(F)F)c(=O)n1 [Gemcitabine] + CC1(C)CCC(c2ccc(Cl)cc2)=C(CN2CCN(c3ccc(C(=O)NS(=O)(=O)c4ccc(N[C@H](CCN5CCOCC5)CSc5ccccc5)c(S(=O)(=O)C(F)(F)F)c4)cc3)CC2)C1 [Navitoclax] (partner 0.5 µM)
In short: as §1

| Cell Line | relative viability (Gemcitabine + Linsitinib; first compound 0.001 µM) | relative viability (Gemcitabine + Linsitinib; first compound 0.003162 µM) | relative viability (Gemcitabine + Linsitinib; first compound 0.01 µM) | relative viability (Gemcitabine + Linsitinib; first compound 0.03162 µM) | relative viability (Gemcitabine + Linsitinib; first compound 0.1 µM) | relative viability (Gemcitabine + Foretinib; first compound 0.001 µM) | relative viability (Gemcitabine + Foretinib; first compound 0.003162 µM) | relative viability (Gemcitabine + Foretinib; first compound 0.01 µM) | relative viability (Gemcitabine + Foretinib; first compound 0.03162 µM) | relative viability (Gemcitabine + Foretinib; first compound 0.1 µM) | relative viability (Gemcitabine + Luminespib; first compound 0.001 µM) | relative viability (Gemcitabine + Luminespib; first compound 0.003162 µM) | relative viability (Gemcitabine + Luminespib; first compound 0.01 µM) | relative viability (Gemcitabine + Luminespib; first compound 0.03162 µM) | relative viability (Gemcitabine + Luminespib; first compound 0.1 µM) | relative viability (Gemcitabine + Navitoclax; first compound 0.001 µM) | relative viability (Gemcitabine + Navitoclax; first compound 0.003162 µM) | relative viability (Gemcitabine + Navitoclax; first compound 0.01 µM) | relative viability (Gemcitabine + Navitoclax; first compound 0.03162 µM) | relative viability (Gemcitabine + Navitoclax; first compound 0.1 µM) |
| --- | --- | --- | --- | --- | --- | --- | --- | --- | --- | --- | --- | --- | --- | --- | --- | --- | --- | --- | --- | --- |
| NCI-H358 | 0.653 | 0.327 | 0.186 | 0.23 | 0.157 | 0.729 | 0.168 | 0.0883 | 0.0934 | 0.0705 | 0.778 | 0.294 | 0.126 | 0.121 | 0.114 |  |  |  |  |  |
| NCI-H650 | 0.634 | 0.282 | 0.21 | 0.153 | 0.147 | 0.998 | 0.648 | 0.197 | 0.175 | 0.175 | 0.753 | 0.522 | 0.185 | 0.16 | 0.155 |  |  |  |  |  |
| NCI-H661 | 0.534 | 0.406 | 0.245 | 0.198 | 0.15 | 1.04 | 0.871 | 0.956 | 0.341 | 0.218 | 0.905 | 0.934 | 0.694 | 0.274 | 0.209 |  |  |  |  |  |
| NCI-H1299 | 0.987 | 1.01 | 0.981 | 1 | 0.972 | 1.09 | 1.08 | 1.09 | 1.07 | 1.08 |  |  |  |  |  | 1.02 | 1.08 | 1.04 | 1.02 | 1.06 |
| NCI-H1563 | 1.5 | 1.12 | 1.08 | 0.734 | 0.531 | 0.948 | 0.916 | 0.706 | 0.566 | 0.526 | 0.522 | 0.549 | 0.585 | 0.483 | 0.441 |  |  |  |  |  |
| NCI-H1650 |  |  |  |  |  | 1.28 | 0.666 | 0.374 | 0.179 | 0.145 | 0.197 | 0.185 | 0.177 | 0.197 | 0.177 | 1.57 | 0.851 | 0.434 | 0.176 | 0.11 |
| NCI-H1703 | 0.774 | 0.228 | 0.103 | 0.101 | 0.132 | 0.277 | 0.238 | 0.185 | 0.175 | 0.167 |  |  |  |  |  | 0.73 | 0.178 | 0.141 | 0.118 | 0.102 |
| NCI-H1792 | 0.561 | 0.363 | 0.131 | 0.109 | 0.0721 |  |  |  |  |  | 0.382 | 0.286 | 0.233 | 0.206 | 0.167 | 0.828 | 0.581 | 0.133 | 0.0844 | 0.0803 |
| NCI-H2170 |  |  |  |  |  | 1.02 | 1.03 | 0.909 | 0.3 | 0.518 | 0.564 | 0.633 | 0.575 | 0.169 | 0.151 | 0.72 | 0.52 | 0.458 | 0.183 | 0.162 |
| NCI-H2342 |  |  |  |  |  | 1.08 | 1 | 0.712 | 0.389 | 0.258 | 0.591 | 0.61 | 0.543 | 0.376 | 0.331 |  |  |  |  |  |
| SW 900 |  |  |  |  |  | 0.697 | 0.511 | 0.117 | 0.0938 | 0.0882 | 0.147 | 0.187 | 0.164 | 0.161 | 0.148 |  |  |  |  |  |
